Species on record: Rattus norvegicus
Assay: DrugMatrix - Regimen: Daily Repeat
Format: toxicity, organism-based, Sprague-Dawley
Design: regimen Daily Repeat, gender Male, age 6-8 weeks
Settings: in vivo, sc, 0.07 mg/kg, route subcutaneous, dose level Low, […]; for ABSOLUTE BASOPHIL / ABSOLUTE EOSINOPHIL / ABSOLUTE LYMPHOCYTE / ABSOLUTE MONOCYTE / ABSOLUTE SEGMENTED NEUTROPHIL / BASOPHIL / EOSINOPHIL / ERYTHROCYTE COUNT / HEMATOCRIT / HEMOGLOBIN / LEUKOCYTE COUNT / LYMPHOCYTE / MEAN CORPUSCULAR HEMOGLOBIN / MEAN CORPUSCULAR HEMOGLOBIN CONCENTRATION / MEAN CORPUSCULAR VOLUME / MONOCYTE / NEUTROPHIL / NUCLEATED RED BLOOD CELLS / PLATELET COUNT: tissue Blood; for ALANINE AMINOTRANSFERASE / ALBUMIN / ALKALINE PHOSPHATASE / ASPARTATE AMINOTRANSFERASE / BLOOD UREA NITROGEN / CARBON DIOXIDE / CHLORIDE / CHOLESTEROL / CREATINE PHOSPHOKINASE / CREATININE / GLUCOSE / LACTATE DEHYDROGENASE / LIPASE / PHOSPHORUS / POTASSIUM / SODIUM / TOTAL BILIRUBIN / TOTAL PROTEIN / URIC ACID: tissue Plasma

Compound: CC1(C)O[C@@H]2C[C@H]3[C@@H]4C[C@H](F)C5=CC(=O)C=C[C@]5(C)[C@@]4(F)[C@@H](O)C[C@]3(C)[C@]2(C(=O)CO)O1 [FLUOCINOLONE ACETONIDE]
- ABSOLUTE BASOPHIL (72 h, time 3 day): 0 CELLS/uL
- ABSOLUTE EOSINOPHIL (72 h, time 3 day): 53 CELLS/uL
- ABSOLUTE LYMPHOCYTE (72 h, time 3 day): 3882.67 CELLS/uL
- ABSOLUTE MONOCYTE (72 h, time 3 day): 130 CELLS/uL
- ABSOLUTE SEGMENTED NEUTROPHIL (72 h, time 3 day): 1667.67 CELLS/uL
- BASOPHIL (72 h, time 3 day): 0%
- EOSINOPHIL (72 h, time 3 day): 1%
- ERYTHROCYTE COUNT (72 h, time 3 day): 5.77 x10E6/uL
- HEMATOCRIT (72 h, time 3 day): 37.27%
- HEMOGLOBIN (72 h, time 3 day): 13.5 G/DL
- LEUKOCYTE COUNT (72 h, time 3 day): 5.73 x10E3/uL
- LYMPHOCYTE (72 h, time 3 day): 66%
- MEAN CORPUSCULAR HEMOGLOBIN (72 h, time 3 day): 23.4 pg
- MEAN CORPUSCULAR HEMOGLOBIN CONCENTRATION (72 h, time 3 day): 36.23 G/DL
- MEAN CORPUSCULAR VOLUME (72 h, time 3 day): 64.67 fL
- MONOCYTE (72 h, time 3 day): 2.33%
- NEUTROPHIL (72 h, time 3 day): 30.67%
- NUCLEATED RED BLOOD CELLS (72 h, time 3 day): 0.67 /100WBC
- PLATELET COUNT (72 h, time 3 day): 1436 x10E3/uL
- ALANINE AMINOTRANSFERASE (72 h, time 3 day): 77.67 u/L
- ALBUMIN (72 h, time 3 day): 5.23 G/DL
- ALKALINE PHOSPHATASE (72 h, time 3 day): 414.67 u/L
- ASPARTATE AMINOTRANSFERASE (72 h, time 3 day): 135.67 u/L
- BLOOD UREA NITROGEN (72 h, time 3 day): 21.33 mg/dL
- CARBON DIOXIDE (72 h, time 3 day): 24.33 mmol/L
- CHLORIDE (72 h, time 3 day): 102 MEQ/L
- CHOLESTEROL (72 h, time 3 day): 107 mg/dL
- CREATINE PHOSPHOKINASE (72 h, time 3 day): 290 u/L
- CREATININE (72 h, time 3 day): 0.31 mg/dL
- GLUCOSE (72 h, time 3 day): 275.67 mg/dL
- LACTATE DEHYDROGENASE (72 h, time 3 day): 425.33 u/L
- LIPASE (72 h, time 3 day): 10.67 u/L
- PHOSPHORUS (72 h, time 3 day): 13.03 mg/dL
- POTASSIUM (72 h, time 3 day): 5.79 MEQ/L
- SODIUM (72 h, time 3 day): 145.07 MEQ/L
- TOTAL BILIRUBIN (72 h, time 3 day): 0.27 mg/dL
- TOTAL PROTEIN (72 h, time 3 day): 7.07 G/DL
- URIC ACID (72 h, time 3 day): 1.47 mg/dL
- ABSOLUTE BASOPHIL (120 h, time 5 day): 0 CELLS/uL
- ABSOLUTE EOSINOPHIL (120 h, time 5 day): 0 CELLS/uL
- ABSOLUTE LYMPHOCYTE (120 h, time 5 day): 1551.33 CELLS/uL
- ABSOLUTE MONOCYTE (120 h, time 5 day): 16 CELLS/uL
- ABSOLUTE SEGMENTED NEUTROPHIL (120 h, time 5 day): 3699.33 CELLS/uL
- BASOPHIL (120 h, time 5 day): 0%
- EOSINOPHIL (120 h, time 5 day): 0%
- ERYTHROCYTE COUNT (120 h, time 5 day): 6.67 x10E6/uL
- HEMATOCRIT (120 h, time 5 day): 40.23%
- HEMOGLOBIN (120 h, time 5 day): 14.73 G/DL
- LEUKOCYTE COUNT (120 h, time 5 day): 5.27 x10E3/uL
- LYMPHOCYTE (120 h, time 5 day): 32%
- MEAN CORPUSCULAR HEMOGLOBIN (120 h, time 5 day): 22.1 pg
- MEAN CORPUSCULAR HEMOGLOBIN CONCENTRATION (120 h, time 5 day): 36.6 G/DL
- MEAN CORPUSCULAR VOLUME (120 h, time 5 day): 60.37 fL
- MONOCYTE (120 h, time 5 day): 0.33%
- NEUTROPHIL (120 h, time 5 day): 67.67%
- NUCLEATED RED BLOOD CELLS (120 h, time 5 day): 1 /100WBC
- PLATELET COUNT (120 h, time 5 day): 1631 x10E3/uL
- ALANINE AMINOTRANSFERASE (120 h, time 5 day): 131 u/L
- ALBUMIN (120 h, time 5 day): 4.93 G/DL
- ALKALINE PHOSPHATASE (120 h, time 5 day): 313 u/L
- ASPARTATE AMINOTRANSFERASE (120 h, time 5 day): 231.67 u/L
- BLOOD UREA NITROGEN (120 h, time 5 day): 20.33 mg/dL
- CARBON DIOXIDE (120 h, time 5 day): 24 mmol/L
- CHLORIDE (120 h, time 5 day): 102.33 MEQ/L
- CHOLESTEROL (120 h, time 5 day): 92.33 mg/dL
- CREATINE PHOSPHOKINASE (120 h, time 5 day): 1505.67 u/L
- CREATININE (120 h, time 5 day): 0.26 mg/dL
- GLUCOSE (120 h, time 5 day): 389.33 mg/dL
- LACTATE DEHYDROGENASE (120 h, time 5 day): 225 u/L
- LIPASE (120 h, time 5 day): 10 u/L
- PHOSPHORUS (120 h, time 5 day): 13.57 mg/dL
- POTASSIUM (120 h, time 5 day): 5.94 MEQ/L
- SODIUM (120 h, time 5 day): 147.93 MEQ/L
- TOTAL BILIRUBIN (120 h, time 5 day): 0.2 mg/dL
- TOTAL PROTEIN (120 h, time 5 day): 6.7 G/DL
- URIC ACID (120 h, time 5 day): 2.67 mg/dL
